The values that follow come from patent US12570648B2, “6,7-dihydro-5H-pyrido[2,3-c]pyridazine derivatives and related compounds as Bcl-xL protein inhibitors and pro-apoptotic agents for treating cancer” (LES LABORATOIRES SERVIER, priority 2019, dated 2026).

In data set [1] the target is GST(1-218)-(FACTOR_XA)-hsBCLXL(2-209) (Homo sapiens (Human), UniProt Q07817). As to the kind of experiment: Fluorescence polarisation assay. Type of data set: binding. The procedure: Fluorescence polarization measures the rotation of a fluorescing species in solution, the larger the molecule the more polarized the fluorescence emission.
GST(1-218)-(FACTOR_XA)-hsBCLXL(2-209), sequence (Q07817 other isoform, or with tags, fused parts or gaps): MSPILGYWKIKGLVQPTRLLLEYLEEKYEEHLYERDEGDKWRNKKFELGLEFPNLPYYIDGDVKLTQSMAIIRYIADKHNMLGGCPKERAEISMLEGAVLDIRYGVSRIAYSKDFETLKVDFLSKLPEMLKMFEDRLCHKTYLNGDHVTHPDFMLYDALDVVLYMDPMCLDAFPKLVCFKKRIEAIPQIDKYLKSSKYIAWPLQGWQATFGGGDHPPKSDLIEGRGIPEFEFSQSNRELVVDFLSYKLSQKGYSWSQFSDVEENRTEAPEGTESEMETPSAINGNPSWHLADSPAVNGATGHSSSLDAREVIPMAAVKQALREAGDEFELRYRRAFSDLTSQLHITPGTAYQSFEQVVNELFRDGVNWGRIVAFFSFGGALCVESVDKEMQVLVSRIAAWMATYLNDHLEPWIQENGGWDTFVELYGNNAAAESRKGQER
(GST UniProtKB® primary accession number P08515 and BCLXL UniProtKB® primary accession number Q07817-1), • resulting in an increase in anisotropy. If a compound is added which competitively binds to the same site as the probe, thereby releasing it, anisotropy decreases due to the increased amount of free probe.
An 11-point serial dilution of each compound was prepared in DMSO, the final buffer conditions were 10 mM 4-(2-hydroxyethyl)-1-piperazineethanesulfonic acid [HEPES], 150 mM NaCl, 0.05% Tween 20, pH 7.4 and 5% DMSO. The final protein concentration in the assay was 20 nM with the fluorescent probe present at 10 nM. […] 1; 37 (WebServer issue): W441-W445.
Background: Polarisation of emitted light reports the rotation of a fluorescent probe.

The target in data set [2] is His-His-(EK)-hsBCLXL(2-197)[N197C] (Homo sapiens (Human), UniProt Q07817, N197C). As to the kind of experiment: Fluorescence quenching assay. Type of data set: binding. As to conditions: 1 nM Cy5-labelled protein, 400 nM PUMA peptide, 2 hours at 23° C.; KI determined from IC50. The gist of the method:
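Ki values converted from IC50s, measured as fluorescence increase (Ex 620/Em 680 nm) after 2 h at 23° C. Compounds were titrated over 11 points against 1 nM Cy5-BCL-xL and 400 nM quencher-tagged PUMA peptide in pH 7.4 HEPES (10 mM), 150 mM NaCl, 0.05% Tween 20, 5% DMSO.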

The subject of data set [3] is H146 cells. The experiment in a line: H146 cell viability using MTT assay. Type of data set: cell-based. As to conditions: Homo sapiens, NCI-H146, 48 h exposure. The gist of the method:
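IC50 comes from four-parameter fits of optical density at 540 nm. Readout used 4 h MTT reduction followed by overnight SDS/HCl solubilisation, after 48 h compound exposure across nine 3.16-fold dilutions in triplicate. Culture medium was RPMI 1640 with 10% heat-inactivated FBS, antibiotics and L-glutamine.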
For orientation: Tetrazolium assays rely on reduction of a dye to a coloured formazan, in cell work by metabolically active cells.

For data set [4], the system named is MOLT-4 cells. As to the kind of experiment: MOLT-4 cell viability using MTT assay. Type of data set: cell-based. As to conditions: Homo sapiens, MOLT-4, 48 h, 48 h exposure. As to the method:
MTT colorimetric assay is based on the mitochondrial reduction of tetrazolium salt by living cells.
Cells were cultured at 37° C. in a humidified atmosphere containing 5% CO2. […] At the end of incubation time, 15 μL of MTT solution (5 mg/ml) were added per well and the cells were incubated for another 4 h. […] IC50s were calculated using standard four-parametric curve fitting.

Data set [5] deals with pre-clinical models of T-ALL and different types of solid tumors. The following applies: cited from earlier work.
Data set [6] relates to Molt-4. As to conditions: xenograft model Molt-4; cited from earlier work.
The subject of data set [7] is lymphocyte proliferation. As to conditions: in vitro; cited from earlier work.
Data set [8] relates to animal models of arthritis and lupus. As to conditions: mice; cited from earlier work.
Data set [9] has as its system allogeneic T-cell. The following applies: in vitro; cited from earlier work.
Data set [10] deals with T-ALL patient derived xenograft models. The following applies: cited from earlier work.
Data set [11] concerns lymphoid malignancies. As to conditions: clinical studies; cited from earlier work.

By Ki is commonly meant the dissociation constant of the complex between target and ligand, obtained from inhibition or displacement. A word on the IC50: it is the concentration that inhibits the measured activity by half.

His-His-(EK)-hsBCLXL(2-197)[N197C], sequence (Q07817 2-197 N197C): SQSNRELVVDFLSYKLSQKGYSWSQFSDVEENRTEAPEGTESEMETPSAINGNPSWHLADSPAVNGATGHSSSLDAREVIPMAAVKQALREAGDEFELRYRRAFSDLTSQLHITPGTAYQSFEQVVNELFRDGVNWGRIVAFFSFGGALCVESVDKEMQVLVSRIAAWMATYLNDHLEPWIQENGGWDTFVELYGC

With `CN(C)CC#Cc1ccc(OCCCc2sc(N3CCCc4c3nnc(Nc3nc5ccccc5s3)c4C3CC3)nc2C(=O)O)c(F)c1` [Example 30, 2-{3-[(1,3-Benzothiazol-2-yl)amino]-4-cyclopropyl-5H,6H,7H,8H-pyrido[2,3-c]pyridazin-8-yl}-5-(3-{4-[3-(dimethylamino)prop-1-yn-1-yl]-2-fluorophenoxy}propyl)-1,3-thiazole-4-carboxylic acid], the Ki in data set [1] is less than 1 nM; in data set [2] it was 0.0036 nM. Further, the IC50 in [3] is 6.55 nM; in [4], 0.775 nM.
In the case of `Cc1c(Nc2nc3ccccc3s2)nnc2c1CCN2c1nc(C(=O)O)c(CCCOc2ccc(C#CCN(C)C)cc2F)s1` [Example 22, 2-{3-[(1,3-Benzothiazol-2-yl)amino]-4-methyl-5H,6H,7H-pyrrolo[2,3-c]pyridazin-7-yl}-5-(3-{4-[3-(dimethylamino)prop-1-yn-1-yl]-2-fluorophenoxy}propyl)-1,3-thiazole-4-carboxylic acid], the inhibition constant (Ki) was found to be 3 nM in [1] and 0.025 nM in [2]. Besides, the results for the IC50 in [3] and in data set [4] were 12.7 nM and 3.42 nM, respectively.
`Cc1c(-c2ccc(N3CCc4cccc(C(=O)Nc5nc6ccccc6s5)c4C3)nc2C(=O)O)cnn1CC12CC3CC(CC(C3)C1)C2` [Example A-1331852]: the in vivo activity entry in [5] is listed as “exhibited in vivo activity”. In data set [6], the “in vitro and in vivo activity” value is “in vitro and in vivo activity”.
Take `Cc1c(Nc2nc3ccccc3s2)nnc2c1CCCN2c1nc(C(=O)O)c(CCCOc2ccc(C#CCN(C)C)cc2F)s1` [Example 27, 2-[3-(1,3-Benzothiazol-2-ylamino)-4-methyl-6,7-dihydro-5H-pyrido[2,3-c]pyridazin-8-yl]-5-[3-[4-[3-(dimethylamino)prop-1-ynyl]-2-fluoro-phenoxy]propyl]thiazole-4-carboxylic acid]: the Ki in data set [1] is less than 1 nM; in data set [2] it was 0.0085 nM. Moreover, the IC50 in data set [3] was determined as 6.53 nM.
With `COCCCC1(Cn2ncc(-c3sc(N4CCc5c4nnc(Nc4nc6ccccc6s4)c5C)nc3C(=O)O)c2C)CCCCC1` [Example 17, 2-{3-[(1,3-Benzothiazol-2-yl)amino]-4-methyl-5H,6H,7H-pyrrolo[2,3-c]pyridazin-7-yl}-5-(1-{[1-(3-methoxypropyl)cyclohexyl]methyl}-5-methyl-1H-pyrazol-4-yl)-1,3-thiazole-4-carboxylic acid], in [1], the Ki was determined as 2 nM. For the same compound, the 50% inhibitory concentration (IC50) turned out to be 393 nM in data set [3] and 128 nM in [4].
For `Cc1c(Nc2nc3ccccc3s2)nnc2c1CCCCN2c1nc(C(=O)O)c(CCCOc2ccc(C#CCN(C)C)cc2F)s1` [Example 31, 2-{3-[(1,3-Benzothiazol-2-yl)amino]-4-methyl-5H,6H,7H,8H,9H-pyridazino[3,4-b]azepin-9-yl}-5-(3-{4-[3-(dimethylamino)prop-1-yn-1-yl]-2-fluorophenoxy}propyl)-1,3-thiazole-4-carboxylic acid], the Ki is less than 1 nM in data set [1] and 0.0082 nM in data set [2]. Besides, the IC50 came to 88.2 nM in [3] and 14.8 nM in data set [4].
The like results for `Cc1c(Nc2nc3ccccc3s2)nnc2c1CCCN2c1nc(C(=O)O)c(CCCOc2ccc(CN)cc2F)s1` [Example 35, 5-{3-[4-(Aminomethyl)-2-fluorophenoxy]propyl}-2-{3-[(1,3-benzothiazol-2-yl)amino]-4-methyl-5H,6H,7H,8H-pyrido[2,3-c]pyridazin-8-yl}-1,3-thiazole-4-carboxylic acid] were, in that order, less than 1 nM, 0.0077 nM, 62.8 nM and 30.2 nM.
`CN(C)CC#Cc1ccc(OCCCc2sc(N3CCc4cccc(C(=O)Nc5nc6ccccc6s5)c4C3)nc2C(=O)O)c(F)c1` [Example A-1155463]: the in vivo activity result in data set [5] is given as “exhibited in vivo activity”.
`Cc1c(Nc2nc3ccccc3s2)nnc2c1CCCN2c1cccc(C(=O)O)c1` [Example 26, 3-{3-[(1,3-Benzothiazol-2-yl)amino]-4-methyl-5H,6H,7H,8H-pyrido[2,3-c]pyridazin-8-yl}benzoic acid]: in data set [1], the affinity corresponds to a Ki of 15000 nM. The values for the IC50 in [3] and in data set [4] were greater than 15000 nM and no less than 13400 nM, respectively.
The compound `COCCCC1(Cn2ncc(-c3sc(N4CCc5c4nnc(Nc4nc6ccccc6s4)c5C)nc3C(=O)O)c2C)CCCCCCC1` [Example 14, 2-{3-[(1,3-Benzothiazol-2-yl)amino]-4-methyl-5H,6H,7H-pyrrolo[2,3-c]pyridazin-7-yl}-5-(1-{[1-(3-methoxypropyl)cyclooctyl]methyl}-5-methyl-1H-pyrazol-4-yl)-1,3-thiazole-4-carboxylic acid] displayed a Ki in data set [1] of 5.5 nM. Moreover, the IC50 in data set [3] came out at 3080 nM; in [4] it was 453 nM.
For `CN(C)CC[C@H](CSc1ccccc1)Nc1ccc(S(=O)(=O)NC(=O)c2ccc(N3CCN(Cc4ccccc4-c4ccc(Cl)cc4)CC3)cc2)cc1[N+](=O)[O-]` [ABT-737], the lymphocyte proliferation entry in [7] was “potent inhibition of lymphocyte proliferation”. Further, the disease severity entry in [8] is recorded as “significant decrease in disease severity”. For the same compound, the “allogeneic T-cell activation, proliferation, and cytotoxicity” value in data set [9] is “prevented allogeneic T-cell activation, proliferation, and cytotoxicity”. Also, the activity result in [10] was “promising activity”.
For the compound `CC1(C)CCC(c2ccc(Cl)cc2)=C(CN2CCN(c3ccc(C(=O)NS(=O)(=O)c4ccc(N[C@H](CCN5CCOCC5)CSc5ccccc5)c(S(=O)(=O)C(F)(F)F)c4)cc3)CC2)C1` [ABT-263], the antitumor activity entry in data set [11] was “objective antitumor activity”. Further, in [10], the activity entry was “promising activity”.
With `Cc1c(Nc2nc3ccccc3s2)nnc2c1CCCN2c1nc(C(=O)O)c(CCCOc2ccc(CCCN(C)C)cc2F)s1` [Example 36, 2-{3-[(1,3-Benzothiazol-2-yl)amino]-4-methyl-5H,6H,7H,8H-pyrido[2,3-c]pyridazin-8-yl}-5-(3-{4-[3-(dimethylamino)propyl]-2-fluorophenoxy}propyl)-1,3-thiazole-4-carboxylic acid], the Ki is less than 1 nM in data set [1] and 0.0017 nM in data set [2]. Moreover, the IC50 in data set [3] came out at 5.51 nM.
Regarding `Cc1c(Nc2nc3ccccc3s2)nnc2c1ccn2-c1ccc(-c2cnn(CC34CC5CC(CC(C5)C3)C4)c2C)c(C(=O)O)n1` [Example 23], the inhibition constant Ki was determined as 1.1 nM in data set [1] and 0.051 nM in [2]. The IC50 in data set [3] worked out at 2.77 nM; in data set [4], 0.948 nM.
In [1], `Cc1c(Nc2nc3ccccc3s2)nnc2c1CCCN2c1nc(C(=O)O)cs1` [Example 15, 2-{3-[(1,3-Benzothiazol-2-yl)amino]-4-methyl-5H,6H,7H,8H-pyrido[2,3-c]pyridazin-8-yl}-1,3-thiazole-4-carboxylic acid] showed a Ki of 2.3 nM. Also, the figures for the IC50 in [3] and in data set [4] were 2600 nM and 1050 nM, respectively.
For `Cc1c(Nc2nc3ccccc3s2)nnc2c1CCCN2c1cccc(C(=O)O)n1` [Example 21, 6-{3-[(1,3-Benzothiazol-2-yl)amino]-4-methyl-5H,6H,7H,8H-pyrido[2,3-c]pyridazin-8-yl}pyridine-2-carboxylic acid], in that order: 1600 nM, greater than 15000 nM and 4230 nM.
